# Measurements published in patent US12649980B2, “Three-dimensional surface for protein and small molecule microarrays” (The Johns Hopkins University, priority 2019, dated 2026).
# What was measured:
# GLUT1 = biological target: T1, GLUT1 (Homo sapiens, UniProt P11166); assay: rapafucin 3D microarray screen with GLUT1-containing cell lysate; assay type: binding; conditions: signal-to-background ratio, 3D surface, lysate of GLUT1-overexpressing HEK293T; hit if SBR > 3
# T1 construct: The full-length human SLC2A1, SLC2A3, and SLC2A4 genes were PCR amplified and inserted into pLenti6M vector 2; expressed in transfected cells
# T1 sequence (P11166 1-492): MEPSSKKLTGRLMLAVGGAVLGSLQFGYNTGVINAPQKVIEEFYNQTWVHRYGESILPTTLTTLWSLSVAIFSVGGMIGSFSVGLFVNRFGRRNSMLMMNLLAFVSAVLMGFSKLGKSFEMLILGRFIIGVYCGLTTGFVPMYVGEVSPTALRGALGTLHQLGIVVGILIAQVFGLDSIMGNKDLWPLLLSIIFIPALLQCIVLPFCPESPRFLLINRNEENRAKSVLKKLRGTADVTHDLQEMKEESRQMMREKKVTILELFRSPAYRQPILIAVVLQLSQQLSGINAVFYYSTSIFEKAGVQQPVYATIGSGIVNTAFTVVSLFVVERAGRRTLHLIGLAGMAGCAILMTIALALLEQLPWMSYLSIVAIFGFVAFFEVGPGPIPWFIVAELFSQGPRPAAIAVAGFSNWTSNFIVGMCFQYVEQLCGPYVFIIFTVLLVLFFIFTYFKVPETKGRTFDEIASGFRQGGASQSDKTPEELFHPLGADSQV
# Source text: Once stock solutions of the rapafucin library were arrayed on the 2D or 3D surface and most of solvent carrier was evaporated, the crosslinking reaction was initiated by irradiating the surfaces with 365-nm wavelength UV light. Kawatani and Osada, Medchemcomm 2014, 5, 277-287. […] To screen for GLUT1-interacting rapafucins, GLUT1 was stably overexpressed in HEK293T cells and generated cell lysates containing detergent-solubilized recombinant GLUT1 (FIG. 10). The GLUT1-containing cell lysate was then incubated on both 2D and 3D rapafucin microarrays. After washing the slides to remove unbound proteins, the bound GLUT1 protein was detected with anti-GLUT1 antibodies, followed by visualization with Cy5-labeled secondary antibodies using a microarray scanner. Rapafucins were scored as positive hits when the corresponding SBR was greater than 3. Based on this criterion, a total of 17 rapafucin hits and one positive control BAY-876, a specific GLUT1 inhibitor, Siebeneicher et al., ChemMedChem 2016, 11, 2261-2271, were identified on the 3D rapafucin microarray. In contrast, only one hit (WL13-F11, also among the 17 hits identified from the 3D rapafucin microarray) was identified on the 2D rapafucin microarray (Table 1, FIG. 11).
# The amine substrates (Arrayit, SMM) were immerged in a mixture of 2-bromoisobutyryl bromide (BIBB, 0.1 mM, as initiator) and propionyl bromide (10 mM, as horizontal spacer) with triethylamine (15 mM) in DCM for 4 hours. A degassed polymerization reaction mixture, containing copper (II) chloride dihydrate (CuCl2, 4 mmol), 2,2′-bipyridine (2 mmol), 75 mmol monomers mixture of 2-(dimethylamino)ethyl methacrylate (DMAEMA) and poly(ethylene glycol) methacrylate (PEGMA Mn 360) in 500 mL Milli-Q/MeOH, was mixed with freshly made ascorbic acid (4 mmol). The mixture was applied to 50 slides for 6 hours under the argon atmosphere for the surface-initiated polymerization. A gradient ratio of PEGMA and DMAEMA was set, including 10:0, 8:2, 5:5, 2:8 and 0:10 for an optimization purpose. The terminals of the brushes were further functionalized by N,N′-disuccinimidyl carbonate (DSC, 10 mM) and 4-dimethylaminopyridine (DMAP,10 mM) in DMF overnight to form succinimidyl carbonate intermediate, and, successively, diazirine linker 1 (10 mM) and N,Ndiisopropylethylamine (DIPEA, 50 mM) in DMF for 2 hours to couple the photoaffinity linker in dark at room temperature. At the end, the substrates were immerged in a 50 mM ethanolamine in DMF to block the residual carboxylic moiety. The slides were thoroughly washed by DMF, EtOH and DCM and dried in a fuming cupboard and ready for spotting.
# 10 mM of rapafucins in DMSO from the library were spotted onto the slides with a high-precision microarrayer (Nanoprint, Arrayit, CA) for a desired pattern in dark, which was loaded with 16 100-μm diameter micro-spotting pins. The pin heads were thoroughly washed and sonicated in ethanol and dried for 4 times under a compassed air between each sample loading. After overnight evaporation, the slides were exposed to 365-nm wavelength UV irradiation for 4 J/cm^2 by CL-1000L UV crosslinker (UVP, CA) for rapafucins covalent immobilization. The slides were ultrasonic cleaned successively in DCM, MeOH and Milli-Q water and stored in a −20° C. freezer.
# In the optimization experiments, the slides were incubated with 50 nM purified recombinant FKBP12 for 1 hour, while in the GLUT1 screening, 10 mg/mL of cell lysate containing DDM-solubilized GLUT1 from GLUT1 overexpressed HEK293T was incubated for 1 hour. Successively, primary antibody and CY5 labeled secondary antibody were added for 1 hour. The chips were washed in buffer A for 5 mins 3 times after the sample and antibodies incubation. After centrifugation, the dried chips were scanned by a microarray scanner (Genepix, US) at 635-nm wavelength. The final result was analyzed by GenePix software.
# PANC10.05 = assay: [3H]-2DG uptake assay in PANC10.05 cells; assay type: cell-based, human; conditions: PANC 10.05
# Method: (§1) Hay, Nat. Rev. […] To determine whether RgA could inhibit glucose uptake in cancer cell lines in addition to A549, the impact of RgA on [3H]-2DG uptake in six other cancer cell lines, including HCC1954, MCF-7, PANC10.05, Jurkat T, HeLa, and RKO was measured (FIG. 3A, Table 3).
# (§2) The inhibitory activity of compounds on glucose transport was analyzed by measuring the cell uptake of [3H]-2DG as previously described. Ulanovskaya et al., Chem. Biol. 2011, 18, 222-230. Briefly, cells were washed twice and incubated in low-glucose medium for 10 min. Cells were added drugs and incubated for another 10 min before adding [3H]-2DG. After 10 min incubation with [3H]-2DG, cells were washed twice and lysed with 0.2 N NaOH plus 0.2% SDS. The cell lysate was transferred to a new tube containing 1 mL of optiphase supermix. Glucose uptake was quantified with a scintillation counter.
# Jurkat T = assay: [3H]-2DG uptake assay in Jurkat T cells; assay type: cell-based, human
# Method: as §1, §2
# RKO = assay: [3H]-2DG uptake assay in RKO cells; assay type: cell-based, human
# Method: as §1, §2
# DLD1 WT = assay: [3H]-2DG uptake in DLD1 WT cells; assay type: cell-based; conditions: DLD1 wild type
# Method: as §2
# [1] = tested on: Jurkat T FKBP knock out cells; assay: [3H]-2DG uptake in Jurkat T FKBP12, FKBP51, FKBP52 knock out cells; assay type: cell-based, human; conditions: Jurkat T FKBP12, FKBP51, FKBP52 KO versus WT
# Method: To further determine the dependence of RgA on endogenous FKBP, three major isoforms of FKBP, FKBP12, FKBP51 and FKBP52 were knocked out using CRISPR-Cas9 in Jurkat T cells. Guo et al., Nat. Chem. 2019, 11, 254-263. Unlike ENT1 inhibitor rapacodin, Guo et al., Nat.
# as §2
smiles,measurement,setting,value
"CCC(C)C1C(=O)NCC(=O)N(C)CCC=CC(=O)OCC(C)(C)C(=O)C(=O)N2CCCCC2C(=O)OC(CCc2ccc(OC)c(OC)c2)c2cccc(c2)NC(=O)CCC(=O)N(C)C(CC(C)C)C(=O)NC(Cc2ccccc2)C(=O)N1C (stereo not drawn) [JW11-D2, Rapaglutin A]",3D SBR,GLUT1,6.5 ± 1.4
same,IC50,PANC10.05,9.5 nM
same,IC50,Jurkat T,10.1 nM
same,IC50,RKO,10.8 nM
same,EC50,DLD1 WT,17.5 ± 2.5 nM
same,effect of knockout of three FKBP isoforms on sensitivity of cells,[1],negligible effects
